Data published in ChEMBL document CHEMBL5244230, “Artemisinin-derived hybrids and their anticancer activity” (Eur J Med Chem, 2020).

What was measured:
[1] = Cytotoxicity against human U87 cells assessed as cell growth inhibition measured after 48 hrs by MTT assay; format: functional, U-87MG ATCC; details: U-87 MG
B16 = test: Cytotoxicity against mouse B16 cells assessed as cell growth inhibition measured after 48 hrs by MTT assay; format: functional
A 172 = test: Cytotoxicity against human A-172 cells assessed as cell growth inhibition measured after 48 hrs by MTT assay; format: functional
DLD-1 = test: Cytotoxicity against human DLD-1 cells assessed as cell growth inhibition measured after 48 hrs by MTT assay; format: functional
HeLa = test: Cytotoxicity against human HeLa cells assessed as cell growth inhibition measured after 48 hrs by MTT assay; format: functional
SiHa = test: Cytotoxicity against human SiHa cells assessed as cell growth inhibition measured after 48 hrs by MTT assay; format: functional

SMILES	GI50 [1] [nM]	GI50 (B16) [nM]	GI50 (A 172) [nM]	GI50 (DLD-1) [nM]	GI50 (HeLa) [nM]	GI50 (SiHa) [nM]
C[C@@H]1[C@@H](n2cc(-c3ccccc3)nn2)O[C@@H]2O[C@@]3(C)CC[C@H]4[C@H](C)CC[C@@H]1[C@@]24OO3	30	30	30	30	30	30
COc1ccc(-c2cn([C@@H]3O[C@@H]4O[C@@]5(C)CC[C@H]6[C@H](C)CC[C@@H]([C@H]3C)[C@@]46OO5)nn2)cc1	50	50	50	50	50	50
CCCCCc1ccc(-c2cn([C@@H]3O[C@@H]4O[C@@]5(C)CC[C@H]6[C@H](C)CC[C@@H]([C@H]3C)[C@@]46OO5)nn2)cc1	50	50	50	50	50	50
C[C@H]1[C@H](n2cc(-c3ccccc3)nn2)O[C@@H]2O[C@@]3(C)CC[C@H]4[C@H](C)CC[C@@H]1[C@@]24OO3	50	50	50	50	50	50
C[C@H]1[C@H](n2cc(-c3cc(F)cc(F)c3)nn2)O[C@@H]2O[C@@]3(C)CC[C@H]4[C@H](C)CC[C@@H]1[C@@]24OO3	50	50	50	50	50	50
Cc1ccc(-c2cn(C3O[C@@H]4O[C@@]5(C)CC[C@H]6[C@H](C)CC[C@@H]([C@H]3C)[C@@]46OO5)nn2)cc1 (some centres undefined)	50	50	50	50	50	50
C[C@H]1[C@H](n2nncc2-c2ccccc2C(F)(F)F)O[C@@H]2O[C@@]3(C)CC[C@H]4[C@H](C)CC[C@@H]1[C@@]24OO3	40	40	40	40	40	40
C[C@@H]1CC[C@H]2[C@@H](C)C(n3cc(-c4ccc(F)cc4)nn3)O[C@@H]3O[C@@]4(C)CC[C@@H]1[C@]32OO4 (some centres undefined)	50	50	50	50	50	50
C[C@H]1[C@H](n2cc(-c3ccccc3C(F)(F)F)nn2)O[C@@H]2O[C@@]3(C)CC[C@H]4[C@H](C)CC[C@@H]1[C@@]24OO3	50	50	50	50	50	50
C[C@H]1[C@H](n2nncc2-c2ccc(F)cc2)O[C@@H]2O[C@@]3(C)CC[C@H]4[C@H](C)CC[C@@H]1[C@@]24OO3	40	40	40	40	40	40
C[C@H]1[C@H](n2nncc2-c2cc(F)cc(F)c2)O[C@@H]2O[C@@]3(C)CC[C@H]4[C@H](C)CC[C@@H]1[C@@]24OO3	40	40	40	40	40	40
C[C@@H]1[C@@H](n2cc(-c3cc(F)cc(F)c3)nn2)O[C@@H]2O[C@@]3(C)CC[C@H]4[C@H](C)CC[C@@H]1[C@@]24OO3	30	30	30	30	30	30
CCCCCc1ccc(-c2cn([C@H]3O[C@@H]4O[C@@]5(C)CC[C@H]6[C@H](C)CC[C@@H]([C@@H]3C)[C@@]46OO5)nn2)cc1	30	30	30	30	30	30
C[C@H]1[C@H](n2nncc2-c2ccc(Cl)cc2)O[C@@H]2O[C@@]3(C)CC[C@H]4[C@H](C)CC[C@@H]1[C@@]24OO3	40	40	40	40	40	40
Cc1ccc(-c2cn([C@H]3O[C@@H]4O[C@@]5(C)CC[C@H]6[C@H](C)CC[C@@H]([C@@H]3C)[C@@]46OO5)nn2)cc1	30	30	30	30	30	30
Cc1ccc(-c2cnnn2[C@@H]2O[C@@H]3O[C@@]4(C)CC[C@H]5[C@H](C)CC[C@@H]([C@H]2C)[C@@]35OO4)cc1	40	40	40	40	40	40
COc1ccc(-c2cn([C@H]3O[C@@H]4O[C@@]5(C)CC[C@H]6[C@H](C)CC[C@@H]([C@@H]3C)[C@@]46OO5)nn2)cc1	30	30	30	30	30	30
C[C@@H]1[C@@H](n2cc(-c3ccc(F)cc3)nn2)O[C@@H]2O[C@@]3(C)CC[C@H]4[C@H](C)CC[C@@H]1[C@@]24OO3	30	30	30	30	30	30
C[C@@H]1CC[C@H]2[C@@H](C)C(n3cc(-c4cccc(Cl)c4)nn3)O[C@@H]3O[C@@]4(C)CC[C@@H]1[C@]32OO4 (some centres undefined)	50	50	50	50	50	50
C[C@@H]1[C@@H](n2cc(-c3cccc(Cl)c3)nn2)O[C@@H]2O[C@@]3(C)CC[C@H]4[C@H](C)CC[C@@H]1[C@@]24OO3	30	30	30	30	30	30
C[C@@H]1[C@@H](n2cc(-c3ccccc3C(F)(F)F)nn2)O[C@@H]2O[C@@]3(C)CC[C@H]4[C@H](C)CC[C@@H]1[C@@]24OO3	30	30	30	30	30	30
CCCCCc1ccc(-c2cnnn2[C@@H]2O[C@@H]3O[C@@]4(C)CC[C@H]5[C@H](C)CC[C@@H]([C@H]2C)[C@@]35OO4)cc1	40	40	40	40	40	40
C[C@H]1[C@H](n2nncc2-c2ccccc2)O[C@@H]2O[C@@]3(C)CC[C@H]4[C@H](C)CC[C@@H]1[C@@]24OO3	40	40	40	40	40	40
COc1ccc(-c2cnnn2[C@@H]2O[C@@H]3O[C@@]4(C)CC[C@H]5[C@H](C)CC[C@@H]([C@H]2C)[C@@]35OO4)cc1	40	40	40	40	40	40
